Assay [1] is described as follows: Potency code of Table 2 (assay not stated).
Assay [2] concerns CMV reporter. Description: CMV reporter assay (control reporter beside the Ebox reporter). The class given is cell-based. For orientation: A reporter such as luciferase makes a cellular process visible.
Assay [3] relates to MYC transcriptional activity (c-Myc E-box-luciferase reporter, MycCap cells). Description: MYC E-box luciferase reporter assay. The class given is cell-based. As to conditions: Mus musculus, Myc-CaP, read-out: Ebox reporter: IC50. The protocol:
To test the compounds, we evaluated the in silico hits in a MYC E-Box luciferase reporter assay to measure the effects of these compounds (referred to as Min-1 to Min-32) on MYC transcriptional activity. […] (See FIG. 2).
MycCap cells stably expressing luciferase with CMV promoter (MycCap-luc) or c-Myc E-box-luciferase reporter (MycCap Ebox-luc) were plated at 10000 cells per well in 96 well white-wall plate. Serial dilutions of 361 were treated next day. At 4 hours of treatment, luminescence signal was determined immediately after adding 150 μg/ml of Luciferin to the well. (See FIG. 12).

pIC50: −log10 of the molar value. Like-named read-outs stand apart in the source and are kept apart here. Some results are limits rather than exact numbers.

49 compounds from patent US20200392116A1, “SUBSTITUTED HETEROCYCLES AS c-MYC TARGETING AGENTS” (NORTHWESTERN UNIVERSITY, priority 2019, published 2020) can be followed below.

Take `NCCCOc1ccc(-c2cc(C(F)(F)F)n[nH]2)c(O)c1-c1ccc(Cl)c(C(F)(F)F)c1` [NUCC-0201646]: the Potency code entry in assay [1] is “+ (>40 +)”.
In the case of `Cn1nc(C(F)(F)F)cc1-c1ccc(OCc2ccc([N+](=O)[O-])cc2)c(-c2cc(C(F)(F)F)cc(C(F)(F)F)c2)c1O` [NUCC-0201648], in assay [1], the Potency code entry is “+ (>40 +)”.
Regarding `Cn1nc(-c2ccc(OCc3ccc([N+](=O)[O-])cc3)c(-c3cc(C(F)(F)F)cc(C(F)(F)F)c3)c2O)cc1C(F)(F)F` [NUCC-0201649], the Potency code result in assay [1] is on record as “+ (>40 +)”.
Regarding `CCCCOc1ccc(-c2cc(C(F)(F)F)nn2C)c(O)c1-c1cc(C(F)(F)F)cc(C(F)(F)F)c1` [NUCC-0201651], the Potency code entry in assay [1] is “+ (>40 +)”.
Take `CCCCOc1ccc(-c2cc(C(F)(F)F)n(C)n2)c(O)c1-c1cc(C(F)(F)F)cc(C(F)(F)F)c1` [NUCC-0201652]: the Potency code entry in assay [1] is listed as “+ (>40 +)”.
With `Cn1nc(C(F)(F)F)cc1-c1ccc(OCc2ccc([N+](=O)[O-])cc2)c(-c2cncc(C(F)(F)F)c2)c1O` [NUCC-0201653], the Potency code result in assay [1] is recorded as “+++ (10-30 +++)”.
With `Cn1nc(-c2ccc(OCc3ccc([N+](=O)[O-])cc3)c(-c3cncc(C(F)(F)F)c3)c2O)cc1C(F)(F)F` [NUCC-0201654], the Potency code entry in assay [1] is “+ (>40 +)”.
Regarding `Cn1nc(C(F)(F)F)cc1-c1ccc(OCCCNC(=O)OC(C)(C)C)c(-c2cncc(C(F)(F)F)c2)c1O` [NUCC-0201655], the Potency code entry in assay [1] is reported as “+ (>40 +)”.
Take `Cn1nc(-c2ccc(OCCCNC(=O)OC(C)(C)C)c(-c3cncc(C(F)(F)F)c3)c2O)cc1C(F)(F)F` [NUCC-0201656]: in assay [1], the Potency code entry is given as “+ (>40 +)”.
Turning to `Cn1nc(C(F)(F)F)cc1-c1ccc(OCCCNC(=O)OC(C)(C)C)c(-c2ccc(Cl)c(C(F)(F)F)c2)c1O` [NUCC-0201657], the Potency code result in assay [1] was “+ (>40 +)”.
Still for that read-out and setting: with `Cn1nc(-c2ccc(OCCCNC(=O)OC(C)(C)C)c(-c3ccc(Cl)c(C(F)(F)F)c3)c2O)cc1C(F)(F)F` [NUCC-0201658] the entry was “++ (30-40 ++)”; with `C#CCCC(=O)NCCCOc1ccc(-c2cc(C(F)(F)F)n[nH]2)c(O)c1-c1ccc(Cl)c(C(F)(F)F)c1` [NUCC-0201659], “+ (>40 +)”.
For the compound `O=C(CCc1cn(CCOCCOCCOCC(=O)Nc2cccc3c2C(=O)N(C2CCC(=O)NC2=O)C3=O)nn1)NCCOc1ccc(-c2cc(C(F)(F)F)n[nH]2)c(O)c1-c1cncc(C(F)(F)F)c1` (stereo not drawn) [NUCC-0201660], the Potency code entry in assay [1] was “+ (>40 +)”.
With `Nc1ccc(COc2ccc(-c3cc(C(F)(F)F)n[nH]3)c(O)c2-c2cncc(C(F)(F)F)c2)cc1` [NUCC-0201661], the Potency code result in assay [1] was “+ (>40 +)”.
Regarding `C#CCC(N=[N+]=[N-])C(=O)NCCCOc1ccc(-c2cc(C(F)(F)F)n(C)n2)c(O)c1-c1cncc(C(F)(F)F)c1` (stereo not drawn) [NUCC-0201694], in assay [1], the Potency code entry is on record as “+ (>40 +)”.
For the compound `C#CCC(N=[N+]=[N-])C(=O)NCCCOc1ccc(-c2cc(C(F)(F)F)nn2C)c(O)c1-c1ccc(Cl)c(C(F)(F)F)c1` (stereo not drawn) [NUCC-0201695], the Potency code result in assay [1] is reported as “+ (>40 +)”.
Same read-out and setting: the result for `C#CCC(N=[N+]=[N-])C(=O)NCCCOc1ccc(-c2cc(C(F)(F)F)nn2C)c(O)c1-c1cncc(C(F)(F)F)c1` (stereo not drawn) [NUCC-0201696] reads “++ (30-40 ++)”.
In the case of `C#CCC(N=[N+]=[N-])C(=O)NCCOc1ccc(-c2cc(C(F)(F)F)n[nH]2)c(O)c1-c1cncc(C(F)(F)F)c1` (stereo not drawn) [NUCC-0201697], in assay [1], the Potency code result is “+ (>40 +)”.
With `C#CCC(N=[N+]=[N-])C(=O)Nc1ccc(COc2ccc(-c3cc(C(F)(F)F)nn3C)c(O)c2-c2cncc(C(F)(F)F)c2)cc1` (stereo not drawn) [NUCC-0201698], the Potency code result in assay [1] is given as “+ (>40 +)”.
Regarding `C#CCC(N=[N+]=[N-])C(=O)Nc1ccc(COc2ccc(-c3cc(C(F)(F)F)n(C)n3)c(O)c2-c2cncc(C(F)(F)F)c2)cc1` (stereo not drawn) [NUCC-0201699], the Potency code result in assay [1] was “+ (>40 +)”.
As for `Cn1nc(C(F)(F)F)cc1-c1ccc(OCCCNC(=O)COCCOCCOCCn2cc(COc3cccc4c3C(=O)N(C3CCC(=O)NC3=O)C4=O)nn2)c(-c2ccc(Cl)c(C(F)(F)F)c2)c1O` (stereo not drawn) [NUCC-0201702], the Potency code result in assay [1] is given as “+ (>40 +)”.
With `Cn1nc(C(F)(F)F)cc1-c1ccc(OCCCNC(=O)COCCOCCOCCn2cc(COc3cccc4c3C(=O)N(C3CCC(=O)NC3=O)C4=O)nn2)c(-c2cncc(C(F)(F)F)c2)c1O` (stereo not drawn) [NUCC-0201703], the Potency code entry in assay [1] is on record as “+ (>40 +)”.
Turning to `O=C(COCCOCCOCCn1cc(COc2cccc3c2C(=O)N(C2CCC(=O)NC2=O)C3=O)nn1)NCCOc1ccc(-c2cc(C(F)(F)F)n[nH]2)c(O)c1-c1cncc(C(F)(F)F)c1` (stereo not drawn) [NUCC-0201704], in assay [1], the Potency code result is recorded as “+ (>40 +)”.
With `C#CCOc1cccc2c1C(=O)N(C1CCC(=O)NC1=O)C2=O` (stereo not drawn) [NUCC-0201705], the Potency code entry in assay [1] is given as “+ (>40 +)”.
Turning to `Oc1c(-c2cc(C(F)(F)F)[nH]n2)ccc(OCc2ccc(Cl)cc2)c1-c1ccsc1` [NUCC-0201909], in assay [1], the Potency code entry is listed as “+ (>40 +)”.
Take `Oc1c(-c2cc(C(F)(F)F)[nH]n2)ccc(OCc2ccc(Cl)cc2)c1C1CC1` [NUCC-0201910]: in assay [1], the Potency code entry is listed as “+ (>40 +)”.
`N#Cc1ccc(COc2ccc(-c3cc(C(F)(F)F)[nH]n3)c(O)c2-c2ccc(Cl)c(C(F)(F)F)c2)cc1` [NUCC-0201911]: the Potency code result in assay [1] is listed as “+ (>40 +)”.
In the case of `Cn1nc(-c2ccc(OCc3ccc(C#N)cc3)c(-c3ccc(Cl)c(C(F)(F)F)c3)c2O)cc1C(F)(F)F` [NUCC-0201912], in assay [1], the Potency code entry is recorded as “+ (>40 +)”.
For the compound `Cn1nc(C(F)(F)F)cc1-c1ccc(OCc2ccc(C#N)cc2)c(-c2ccc(Cl)c(C(F)(F)F)c2)c1O` [NUCC-0201913], the Potency code result in assay [1] is given as “+ (>40 +)”.
With `Cn1nc(C(F)(F)F)cc1-c1ccc(CNc2ccc(Cl)cc2)c(-c2ccc(Cl)c(C(F)(F)F)c2)c1O` [NUCC-0202414], the results for the negative logarithm of the IC50 (pIC50) in assay [2] and in assay [3] (class symbols) were under 4.30 and 5.00 to 5.30, respectively.
The corresponding values for `Cn1nc(C(F)(F)F)cc1-c1ccc(COc2ccc(Cl)cc2)c(-c2ccc(Cl)c(C(F)(F)F)c2)c1O` [NUCC-0202416] are under 4.30 and over 5.30.
For `Cn1nc(-c2ccc(CNc3ccc(Cl)cc3)c(-c3ccc(Cl)c(C(F)(F)F)c3)c2O)cc1C(F)(F)F` [NUCC-0202417], the pIC50 in assay [2] and in assay [3] (given as numeric bound) was under 4.30 in each case.
Turning to `CC(Oc1ccc(-c2cc(C(F)(F)F)nn2C)c(O)c1-c1ccc(Cl)c(C(F)(F)F)c1)c1ccc(Cl)cc1` (stereo not drawn) [NUCC-0202418], the negative logarithm of the IC50 (pIC50) in assay [2] was under 4.30; in assay [3] (class symbols), 5.00 to 5.30.
Consider `Cn1nc(-c2ccc(COc3ccc(Cl)cc3)c(-c3ccc(Cl)c(C(F)(F)F)c3)c2O)cc1C(F)(F)F` [NUCC-0202421], for which the pIC50 in assay [2] and in assay [3] (given as numeric bound) was under 4.30 in each case.
As to `Cn1nc(-c2ccc(OCc3ccc(Cl)cc3)c(Oc3ccc(F)cn3)c2O)cc1C(F)(F)F` [NUCC-0202422], the pIC50 in assay [2] and in assay [3] (given as numeric bound) was under 4.30 each time.
`Cn1nc(C(F)(F)F)cc1-c1ccc(N(Cc2ccc(Cl)cc2)C(=O)c2ccc(C(F)(F)F)c(Cl)c2)cc1O` [NUCC-0202423]: the negative-log IC50 (pIC50) in assay [2] was under 4.30; in assay [3] (class symbols), over 5.30.
Regarding `Cn1nc(-c2ccc(N(Cc3ccc(Cl)cc3)C(=O)c3ccc(C(F)(F)F)c(Cl)c3)cc2O)cc1C(F)(F)F` [NUCC-0202424], the pIC50 in assay [2] and in assay [3] (given as numeric bound) was under 4.30 in each case.
As for `COCCOc1ccc(-c2cc(C(F)(F)F)nn2C)c(O)c1-c1ccc(Cl)c(C(F)(F)F)c1` [NUCC-0202425], the negative logarithm of the IC50 (pIC50) in assay [2] is under 4.30; in assay [3] (class symbols), 4.30 to 5.00.
As for `COCCOc1ccc(-c2cc(C(F)(F)F)n(C)n2)c(O)c1-c1ccc(Cl)c(C(F)(F)F)c1` [NUCC-0202426], the negative-log IC50 (pIC50) in assay [2] and in assay [3] (given as numeric bound) was under 4.30 throughout.
As to `Cn1nc(C(F)(F)F)cc1-c1ccc(OC2CCOCC2)c(-c2ccc(Cl)c(C(F)(F)F)c2)c1O` [NUCC-0202427], the results for the pIC50 in assay [2] and in assay [3] (class symbols) were under 4.30 and 4.30 to 5.00, respectively.
Turning to `Cn1nc(-c2ccc(OC3CCOCC3)c(-c3ccc(Cl)c(C(F)(F)F)c3)c2O)cc1C(F)(F)F` [NUCC-0202428], the negative logarithm of the IC50 (pIC50) in assay [2] and in assay [3] (given as numeric bound) was under 4.30 throughout.
On to `COc1ccc(-c2cc(C(F)(F)F)nn2C)c(O)c1-c1ccc(Cl)c(C(F)(F)F)c1` [NUCC-0202429], for which the pIC50 in assay [2] was under 4.30; in assay [3] (class symbols), over 5.30.
For `COc1ccc(-c2cc(C(F)(F)F)n(C)n2)c(O)c1-c1ccc(Cl)c(C(F)(F)F)c1` [NUCC-0202430], the negative logarithm of the IC50 (pIC50) in assay [2] and in assay [3] (given as numeric bound) was under 4.30 in each case.
`Cn1nc(C(F)(F)F)cc1-c1ccc(OC2CCNCC2)c(-c2ccc(Cl)c(C(F)(F)F)c2)c1O` [NUCC-0202431]: the negative-log IC50 (pIC50) is 4.41 in assay [2] and 4.30 to 5.00 in assay [3] (class symbols).
As for `Cn1nc(-c2ccc(OC3CCNCC3)c(-c3ccc(Cl)c(C(F)(F)F)c3)c2O)cc1C(F)(F)F` [NUCC-0202432], the pIC50 in assay [2] was 4.55; in assay [3] (class symbols) it was 4.30 to 5.00.
For the compound `Oc1c(-c2cc(C(F)(F)F)n[nH]2)ccc(NCc2ccc(Cl)cc2)c1-c1ccc(Cl)c(C(F)(F)F)c1` [NUCC-0202433], the negative logarithm of the IC50 (pIC50) in assay [2] is under 4.30; in assay [3] (class symbols) it was 5.00 to 5.30.
As to `O=C(c1ccc(C(F)(F)F)c(Cl)c1)N(Cc1ccc(Cl)cc1)c1ccc(-c2cc(C(F)(F)F)n[nH]2)c(O)c1` [NUCC-0202434], the pIC50 was 4.40 in assay [2] and over 5.30 in assay [3] (class symbols).
Consider `Oc1c(-c2cc(C(F)(F)F)n[nH]2)ccc(OCc2ccc(Cl)cc2)c1Oc1ccc(F)cn1` [NUCC-0202435], for which the pIC50 in assay [2] was under 4.30; in assay [3] (class symbols), 4.30 to 5.00.
With `O=c1cc(C(F)(F)F)oc2cc(NCc3ccc(Cl)cc3)ccc12` [NUCC-0202436], the figures for the negative logarithm of the IC50 (pIC50) in assay [2] and in assay [3] (class symbols) were under 4.30 and 4.30 to 5.00, respectively.

As usually defined, the pIC50 is −log10 of the IC50, conventionally taken in molar units.
